# Results from patent publication US9724329B2, “Stimulating immune response” (Peter MacCallum Cancer Institute, priority 2010, dated 2017).
# Entries after “also recorded” stand apart in the source; their conditions may differ.
# Key:
# [1] = system: K562 cells (natural killer (NK) only sensitive cell line); assay: NK-cell cytotoxicity: drug-treated PBMC as effectors in chromium release assay; type: cell-based, human; conditions: for NK cell function / cytotoxicity (K562 lysis): 10 uM, PBMC cultured 3 days, versus untreated
# Protocol: (§1) FIG. 10. […] (b) The anti-inflammatory potential of NMP was assessed using LPS-treated CD14+ monocytes that were isolated from healthy donor PBMC. Monocytes were treated with 10 uM NMP or lenalidomide (LEN) and 1 ug/mL LPS for 18 hr or left untreated (Unt), then supernatants were analyzed via cytokine bead array for TNFα and IL-6. (c) The polarizing effect of NMP on cytokine production from PBMC was assessed from supernatants collected after 3d drug treatment. Levels of IL-2, IL-4 and IL-10 were analyzed by cytokine bead array. (d) NK-cell cytotoxicity was assessed by culturing healthy donor PBMC in the presence of 10 uM NMP, 10 uM lenalidomide, or as media alone (Unt). Cells harvested after 3d were washed and used as effectors in chromium release assays against the NK-only sensitive cell line, K562 at an effector ratio of 50:1. […] Data are presented as mean+/−SEM. NS, not statistically significant. (p≧0.05), *p<0.05
# Healthy donor peripheral blood mononuclear cells (PBMC) were cultured for 3 days in RPMI-1640 and 10% FCS in the presence of 10 uM NMP, 10 uM Len (positive control) or no drugs. After 3 days the cells were harvested and used as effectors in a standard 4 hr chromium release assay, using K562 as targets (natural killer (NK) only sensitive cell line) (n=3).
# BEZ235 and lenalidomide were dissolved in dimethylsulfoxide (DMSO) as 10 mM stock solutions and further diluted in media to final concentrations as specified in figure legends. The final concentration of DMSO was not greater than 0.1% v/v in any assay.
# [2] = system: transplanted Vk*MYC MM; assay: Transplanted Vk*MYC myeloma model in mice: survival, paraproteinaemia (M-spike), serum immunoglobulin; type: in vivo, mouse; conditions: for efficacy against Vk*MYC MM in vivo (progression): FIG. 8d, lenalidomide 100 mg/kg, NMP, saline control
# Protocol: Sublethally (6Gy) irradiated C57BL/6 mice were injected with 1×10e5 Vk*myc splenocytes derived from myelomatous mice by intravenous injection. Recipient mice were monitored by serum protein electophoresis for development of monoclonal paraproteinaemia (M-spike). The monoclonal paraprotein is a sensitive and specific marker of myeloma burden, as this protein is only produced by myeloma cells. Paraprotein estimation is a standard clinical parameter by which myeloma is monitored in human patients. Once detected, M-spikes were quantitated by densitometry (expressed as % of total serum protein). […] Mice were monitored by weekly M-spike quantification and for clinically apparent disease. Mice developing distress due to disease progression (e.g. hind limb paralysis, splenic rupture) were euthanased.
# All mouse experiments were carried out in accordance with ethical guidelines determined by the Peter Mac Animal Experimental Ethics Committee. For in vivo assessment of NMP efficacy, treatment studies were performed on mice bearing transplanted Vk*MYC myeloma^2. […] To exclude the potential for adoptive transfer of immune cells with grafts into Rag2^−/−cγ^−/− mice and matched C57BL/6 recipients (FIG. 8f), freshly sorted Vk*MYC MM cells (40,000 per mouse) were used for this experiment. The onset of transplanted disease was confirmed by serum protein electrophoresis; those mice manifesting M-protein >2% of total serum protein (FIG. 8a) or >5% (remaining figures) were selected for treatment.
# All dosing was performed by oral gavage using freshly prepared drug solutions or suspensions. Mice were dosed with NMP according to standard practice for drug administration using NMP/PEG as a vehicle^1. NMP (Sigma Aldrich, NSW, AUS) was diluted 1 in 10 v/v (FIG. 8a) or 1 in 5 v/v (remaining figures) in PEG300 (Sigma Aldrich, NSW, AUS) and administered by oral gavage to a final volume of 1 uL NMP per gram mouse weight.
# BEZ235 was kindly provided by Novartis. According to Novartis' recommendations, BEZ235 was dissolved in NMP by heating briefly to 60° C. and further diluting 1 in 10 v/v in PEG300. Alternatively BEZ235 was suspended in 0.5% methylcellulose (MC) solution and mixed thoroughly prior to administration.
# Lenalidomide was kindly provided by Celgene. Lenalidomide was suspended in 0.9% saline solution immediately prior to oral gavage at a dose of 100 mg/kg.
# Treatment was continued daily for the first month, then weekdays only for the remainder of the indicated treatment period. Mice were culled with the development of features of overt myeloma, including permanent hind-limb paralysis and disseminated extramedullary disease.
# Freshly obtained mouse serum was analyzed for paraproteinemia on the Sebia Hydrasys® semi-automated agarose gel electrophoresis system (Sebia, Norcross, Ga., USA). Serum M-spike densitometry quantification was performed using Phoresis software (release 4.7.2, Sebia) by a biochemist blinded to the nature of group allocation. M-spike results are expressed as a percentage of total serum protein.
# For correlative quantitative immunoglobulin estimates, thawed aliquots of serum were batched for sandwich enzyme-linked immunosorbent assay (ELISA) using Igλ or IgK capture antibodies (Southern Biotech, AL, USA) and biotin/streptavidin detection by horseradish peroxidase/tetramethylbenzidine dihydrochloride substrate standardized against IgMK/IgMl isotype controls (Biolegend, CA, USA). ELISA plates were read using a VersaMax™ microplate reader and analyzed by SoftMax Pro software v 5.4 (Molecular Devices, CA, USA).
# [3] = system: PI3K/mTOR phosphorylation targets; assay: PI3K/mTOR phosphorylation targets in vivo; conditions: in vivo (not shown)
# [4] = system: U266 cells; assay: Expression of NKG2D and DNAM-1 ligands on myeloma cells (flow cytometry); type: cell-based, human; conditions: 10 uM, 48 hrs; FIG. 10f
# [5] = system: PBMC; assay: Immune cell subset composition of cultured PBMC; type: cell-based, human; conditions: 10 uM, 3 days
# Protocol: PBMC were cultured in RPMI-1640 and 10% FCS for 3 days in the presence of either 10 uM NMP, 10 uM Len or no drugs. At day 3 the cells were harvested and stained for T cell markers (CD4 and CD8), NK markers (CD3−, CD56) and regulatory T cells (CD3, CD4, CD25, CD127low). For controls, day 0 PBMC were stained to assess changes in cellular subsets after 3 days (n=3).
# [6] = system: LPS induced inflammation and shock; assay: LPS challenge, serum cytokines in non-tumor bearing mice; type: in vivo, mouse; conditions: FIG. 8c; serum 4 hours after LPS; NMP 1 uL/g po, lenalidomide 2 x 100 mg/kg po
# Protocol: (§2) Supernatants from cultured cells or serum from VK*MYC mice were used to assess the level of individual cytokines (as specified in the methods and results section) via the Luminex cytokine bead array system. The assay was conducted according to the manufacturer instructions. Briefly, pre-mixed beads were added to 25 uL of undiluted supernatant/serum, followed by the addition of detection antibodies and streptavidin in 96 well filtered-membrane plates. The plates were run on the Luminex 200 instrument and data analysed with the xPONENT software.
# For LPS challenges, non-tumor bearing C57BL/6 mice were administered LPS (E. Coli 0127:B8, gamma-irradiated; Sigma) 1 mg/30 g mouse weight by intraperitoneal injection. NMP (1 uL/g mouse weight in PEG, po) was administered 4 hours prior to LPS. Lenalidomide was administered in 2 doses of 100 mg/kg po 24 and 4 hours prior to LPS. Serum was obtained 4 hours after LPS challenge and analyzed for cytokine content by bead array.
# [7] = system: CD14+ monocytes; assay: Inflammatory cytokine secretion by LPS-treated CD14+ monocytes; type: cell-based, human; conditions: 10 uM; for IL-6 secretion / TNFα secretion: FIG. 10b, 1 ug/mL LPS, 18 hr
# Protocol: as §1
# CD14+ monocytes were sorted via the Dynal bead kit from PBMC. The cells were then treated with LPS to induce cytokine production, and cultured overnight in the presence of 10 uM NMP, 10 uM Len or no drugs. As background controls, non LPS stimulated monocytes were used. The supernatants were harvested and IL-1beta, GM-CSF, IL-6 and TNF-alpha analyzed via the Luminex beady array assay (n=3).
# as §2
# [8] = system: peripheral blood mononuclear cells (PBMC); assay: Cytokine production of PBMC (cytokine bead array); type: cell-based, human; conditions: for cytokine secretion profile (Th): FIG. 10c, 3d drug treatment
# Protocol: PBMC were cultured for 3 days in RPMI-1640 and 10% FCS in the presence of 10 uM NMP, 10 uM Len or no drugs. After 3 days, supernatants were collected and a cytokine bead array performed via the Luminex instrument to analyze changes in IL-2, IL-4 and IL-10 production (n=3).
# as §2
# [9] = rats, long-term exposure via inhalation or diet; cited from earlier work
# [10] = system: myeloma cell line (U266); assay: Direct cytotoxicity, Annexin V and 7aad flow cytometry, U266; type: cell-based, human; conditions: NMP 0 uM, 1 uM, 10 uM, 100 uM or 10 mM, 48 hours
# Protocol: (§3) PBMC and a myeloma cell line (U266) were cultured in RPMI-1640 with 10% FCS in the presence of NMP (0 uM, 1 uM, 10 uM, 100 uM or 10 mM) for 48 hours. The cells were stained with viability markers (Annexin V and 7aad) and analyzed on the flow cytometer (n=2).
# [11] = system: PBMC; assay: Direct cytotoxicity, Annexin V and 7aad flow cytometry, PBMC; type: cell-based, human; conditions: NMP 0 uM, 1 uM, 10 uM, 100 uM or 10 mM, 48 hours
# Protocol: as §3
# [12] = bacterial and mammalian tests; cited from earlier work
# [13] = rats, in the diet; cited from earlier work
# [14] = in vivo; cited from earlier work
# [15] = system: Vk*MYC MM bearing mice; assay: Serum cytokines in MM bearing mice; type: in vivo, mouse; conditions: FIG. 8e; one week of treatment, versus SAL
# Protocol: as §2
# For cytokine assessment in MM bearing mice, mice were treated daily for 7d with NMP or SAL, and serum collected 4 hours after the last dose.
smiles,measurement,setting,value
"Cn1c(=O)n(-c2ccc(C(C)(C)C#N)cc2)c2c3cc(-c4cnc5ccccc5c4)ccc3ncc21 [BEZ235, reference compound]",effect of co-treatment on NMP-induced NK-cell lysis,"[1]; BEZ235 250 nM with NMP, FIG. 10e",inhibited; also recorded: downregulated
same,median survival,"[2]; FIG. 8a, BEZ235 25 mg/kg/d concurrent with NMP/PEG, n=6",42.5 days
same,effect on disease progression,"[2]; FIG. 8a, BEZ235 in MC vehicle",minimal effect
same,median survival,"[2]; FIG. 8a, BEZ235 in MC vehicle, n=8",47.5 days
same,effect of concurrent administration on the therapeutic effect of NMP,"[2]; FIG. 8a, BEZ235 with NMP/PEG",antagonized
"Nc1cccc2c1CN(C1CCC(=O)NC1=O)C2=O (stereo not shown) [Lenalidomide, reference compound]",effect on PI3K/mTOR phosphorylation targets,[3],did not detect any consistent effect
same,"expression of NKG2D and DNAM-1 ligands (MIC-B, ULBP-1, ULBP-2 and CD155)",[4],a property not shared
same,NK cell function / cytotoxicity (K562 lysis),[1],enhanced
same,"proportions of immune cell subtypes (CD4, CD8, NK, regulatory T cells)",[5],without altering
same,IL-6 production following LPS challenge,[6],only NMP suppressed
same,TNFα serum levels following LPS challenge,[6],suppressed
same,IL-6 secretion,[7],suppressed
same,TNFα secretion,[7],suppressed
same,efficacy against Vk*MYC MM in vivo (progression),[2],poor efficacy
same,efficacy against Vk*MYC MM in vivo (progression),[2]; listed as lenalidomide,minimal effects
same,IL-2 production,"[8]; 10 uM, 3 days",without altering
same,cytokine secretion profile (Th),[8],away from a Th-2 profile
"CN1CCCC1=O [NMP, N-methylpyrrolidone]",carcinogenic effects,[9],no carcinogenic effects
same,effect on PI3K/mTOR phosphorylation targets,[3],did not detect any consistent effect
same,"expression of NKG2D and DNAM-1 ligands (MIC-B, ULBP-1, ULBP-2 and CD155)",[4],upregulated
same,direct cytotoxicity (AnnV+7aad+),[10],did not increase to any significant extent; also recorded: not cytotoxic
same,direct cytotoxicity (AnnV+7aad+),[11],did not increase to any significant extent; also recorded: not cytotoxic
same,NK cell function / cytotoxicity (K562 lysis),[1],enhancement; also recorded: enhanced
same,genotoxicity,[12],no genotoxicity
same,no-effect level (for a decrease in pup body weight),[13],160 mg/kg/day
same,"proportions of immune cell subtypes (CD4, CD8, NK, regulatory T cells)",[5],no significant alteration; also recorded: without altering
same,IL-6 production following LPS challenge,[6],suppressed
same,TNFα serum levels following LPS challenge,[6],suppressed
same,oral LD50,[14],3600 to 7700 mg/kg
same,"secretion of the four inflammatory cytokines (IL-1beta, GM-CSF, IL-6, TNF-alpha)","[7]; Example 6, FIG. 7, overnight, relative to LPS only control",not shown to demonstrate a statistically significant effect
same,IL-6 secretion,[7],Statistically significant inhibition; also recorded: suppressed
same,TNFα secretion,[7],Statistically significant inhibition; also recorded: suppressed
same,median survival,"[2]; Example 1, FIG. 1, C57BL/6, NMP/PEG 1:10 v/v, 10 uL per gram, daily oral, 60 days, control 46 days",60 days
same,residual polyclonal Ig Lambda (L),[2]; FIG. 8b,better maintained; also recorded: less suppressed
same,clonally secreted Ig Kappa (K),"[2]; FIG. 8b, NMP/PEG versus PEG alone or PBS",Suppression
same,NMP response in Rag2−/−cγ−/− knockout mice,"[2]; FIG. 8f, immunodeficient mice lacking T, B or NK cells",No response
same,NMP response in wild type C57BL/6 mice,"[2]; FIG. 8f, same Vk*MYC clone",only observed in wild type C57BL/6
same,efficacy against Vk*MYC MM in vivo (progression),[2],regressed
same,IL4 production,"[8]; 10 uM, 3 days",inhibit
same,IL10 production,"[8]; 10 uM, 3 days",inhibit
same,cytokine secretion profile (Th),[8],away from a Th-2 profile
same,serum IL-6,[15],reductions
same,serum TNFα,[15],reductions
